Data as given in ChEMBL document CHEMBL1146771, “Identification of purine inhibitors of phosphodiesterase 7 (PDE7)” (Bioorg Med Chem Lett, 2004).
pIC50: −log10 of the molar value.

How the values were obtained:
[1] = target: T1, cGMP-dependent 3',5'-cyclic phosphodiesterase (Rattus norvegicus, UniProt Q01062); experiment: Inhibitory concentration against phosphodiesterase 2 from rat kidney
T1 sequence (Q01062 whole entry): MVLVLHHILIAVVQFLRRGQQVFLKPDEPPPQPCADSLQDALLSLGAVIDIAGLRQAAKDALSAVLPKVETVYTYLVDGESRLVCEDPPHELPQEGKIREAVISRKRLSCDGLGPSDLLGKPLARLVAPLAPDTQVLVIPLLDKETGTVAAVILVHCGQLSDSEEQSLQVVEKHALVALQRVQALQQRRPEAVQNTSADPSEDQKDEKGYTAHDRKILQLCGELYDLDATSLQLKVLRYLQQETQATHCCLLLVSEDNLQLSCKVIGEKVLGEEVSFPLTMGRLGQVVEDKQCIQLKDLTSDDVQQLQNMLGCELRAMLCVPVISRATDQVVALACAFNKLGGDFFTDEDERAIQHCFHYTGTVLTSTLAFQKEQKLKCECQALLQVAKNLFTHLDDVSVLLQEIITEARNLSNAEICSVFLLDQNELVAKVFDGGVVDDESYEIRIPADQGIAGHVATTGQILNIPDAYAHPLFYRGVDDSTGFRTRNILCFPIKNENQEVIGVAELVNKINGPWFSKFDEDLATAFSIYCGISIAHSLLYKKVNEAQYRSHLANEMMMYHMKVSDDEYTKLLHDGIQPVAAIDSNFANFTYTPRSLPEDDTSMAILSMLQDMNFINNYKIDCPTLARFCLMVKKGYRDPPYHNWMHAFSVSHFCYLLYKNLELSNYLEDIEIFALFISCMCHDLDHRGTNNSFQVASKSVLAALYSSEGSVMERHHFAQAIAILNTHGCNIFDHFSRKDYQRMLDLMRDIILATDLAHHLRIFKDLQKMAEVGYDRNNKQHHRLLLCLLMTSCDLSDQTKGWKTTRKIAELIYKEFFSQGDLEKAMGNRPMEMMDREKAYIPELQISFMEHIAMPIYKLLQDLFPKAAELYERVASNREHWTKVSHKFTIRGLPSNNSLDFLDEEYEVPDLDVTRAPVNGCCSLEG

Phosphodiesterase 1 = Phosphodiesterase 1 (Bos taurus, UniProt Q01061+P14100); experiment: Inhibitory concentration against phosphodiesterase 1 from bovine, calmodulin; format: protein assay
[2] = target: cGMP-specific 3',5'-cyclic phosphodiesterase (Homo sapiens, UniProt O76074); experiment: Inhibitory concentration against phosphodiesterase 5 (PDE5) from human platelet
Phosphodiesterase 3 = Phosphodiesterase 3 (Homo sapiens, UniProt Q14432+Q13370); experiment: Inhibitory concentration against phosphodiesterase 3 from human platelet
[3] = Inhibition of Phosphodiesterase 7
[4] = Inhibitory concentration ratio of PDE3 to that of PDE7
[5] = Inhibitory concentration ratio of PDE5 to that of PDE7
[6] = Inhibitory concentration ratio of PDE4 to that of PDE7
Rattus norvegicus [7] = organism: Rattus norvegicus
[8] = Inhibitory concentration ratio of PDE1 to that of PDE7
[9] = Inhibitory concentration ratio of PDE2 to that of PDE7
Rattus norvegicus [10] = organism: Rattus norvegicus; experiment: Inhibition of Phosphodiesterase 7 at 1 uM

SMILES	pIC50 [1]	pIC50 [3]	Ratio [4]	Ratio [5]	Ratio [6]	Ratio [8]	Ratio [9]	other results
CCOC(=O)c1sc(Nc2nc(NCc3ccc(OC)c(OC)c3)c3c(ncn3CC)n2)nc1C	5.77	6.82						IC50 (Phosphodiesterase 1): 0.22 µM; pIC50 [2]: 6.57; IC50 (Phosphodiesterase 3): 0.58 µM
COc1ccc(C2CNC(=O)C2)cc1OC1CCCC1 (stereo not given) [ROLIPRAM]	< 5.00	< 5.00						IC50 (Phosphodiesterase 1): > 10 µM; IC50 (Phosphodiesterase 3): > 10 µM
COc1cc(-c2ccc(=O)[nH]n2)ccc1OC(F)F [ZARDAVERINE]	< 5.00	< 5.00						IC50 (Phosphodiesterase 1): > 10 µM; pIC50 [2]: < 5.00; IC50 (Phosphodiesterase 3): 0.11 µM
CCOC(=O)c1sc(Nc2nc(OCc3ccc(S(C)(=O)=O)cc3)c3ncn(CC)c3n2)nc1C		6.43	21	4.1				
CCOC(=O)c1sc(Nc2nc(NS(=O)(=O)c3ccc(S(C)(=O)=O)cc3)c3ncn(CC)c3n2)nc1C		5.80	0.11	0.55	0.046			
Nc1ncnc2c1ncn2[C@@H]1O[C@@H]2COP(=O)(O)O[C@H]2[C@H]1O								Km (Rattus norvegicus [7]): 0.2 µM
CCCc1nn(C)c2c(=O)[nH]c(-c3cc(S(=O)(=O)N4CCN(C)CC4)ccc3OCC)nc12	< 5.00	< 5.00						
COc1nc2c([nH]1)c(=O)n(C)c(=O)n2CC(C)C	< 5.00	< 5.00						IC50 (Phosphodiesterase 1): 1.8 µM; pIC50 [2]: 5.52; IC50 (Phosphodiesterase 3): > 10 µM
CCOC(=O)c1sc(Nc2nc(NCc3ccc(S(N)(=O)=O)cc3)c3ncn(CC)c3n2)nc1C		8.00	> 5000	13	16	200	45	
CCn1cnc2nc(Nc3nc(C)cs3)nc(NCc3ccc(OC)c(OC)c3)c21								inhibition (Rattus norvegicus [10]): 15%
CN(C(=O)CCCOc1ccc2[nH]c(=O)ccc2c1)C1CCCCC1 [CILOSTAMIDE]	< 5.00	< 5.00						IC50 (Phosphodiesterase 1): > 10 µM; pIC50 [2]: 5.15
CCOC(=O)c1sc(Nc2nc(NCc3ccc(S(N)(=O)=O)cc3)c3c(ncn3CC)n2)nc1C		7.96						
CCOC(=O)c1sc(Nc2nc(NCc3ccc(OCc4ccccc4)c(OC)c3)c3c(ncn3CC)n2)nc1C		6.03	2.5	2.9	3.8	1.3	2.3	
CCOC(=O)c1sc(Nc2nc(NCc3cc(OC)c(OC)c(OC)c3)c3c(ncn3CC)n2)nc1C		7.00	33	15	24	1.7	14	
CCOC(=O)c1sc(Nc2nc(NCc3ccc(S(C)(=O)=O)cc3)c3c(ncn3CC)n2)nc1C		7.26	130	0.9	22	18	25	
CCn1cnc2nc(Nc3nc(C)c(C(=O)Nc4ccccc4)s3)nc(NCc3ccc(OC)c(OC)c3)c21		6.09	12	1.1	7	12	11	
CCOC(=O)c1sc(Nc2nc(N3CCc4cc(OC)c(OC)cc4C3)c3c(ncn3CC)n2)nc1C		6.82	17	4.6	1.3	2.8	3.6	
CCOC(=O)c1sc(Nc2nc(NCc3ccc4c(c3)OCO4)c3c(ncn3CC)n2)nc1C		6.96	11	0.38		19		
